Tests used:
[1] = ABTS-assay, anti-oxidative capacity (inhibition of radical formation); type: biochemical; conditions: for IC50: ABTS radical cation, absorption at 734 nm, mean value from at least 2 independent tests
Method: 6-Paradol is a known antioxidant. With the help of the ABTS-assay the anti-oxidative capacity of [6]-paradol and alpha-tocopherol was compared.
2,2′-azino bis-(3-ethylbenzothiazoline 6-sulfonic acid) (ABTS) was transformed by potassium persulfate into the blue-green radical cation ABTS•^+. Through the addition of [6]-paradol and alpha-tocopherol the radical cations were reduced and discoloration was observed, which was determined photometrically by Absorption at 734 nm. The inhibition of the radical formation of the test substance is calculated by the following formula:
[formula] Wherein the abbreviations have the following meanings: • Atest substance: Absorption of the wells with test substance including [6]-paradol and alpha-tocopherol • Acontrol: Absorption of the wells without test substance
From the inhibition of the radical formation [%] in a series of dilutions of tested samples the IC50 was calculated. This is the concentration at which the radical formation is inhibited by 50%.

[2] = Color measurement (CIELAB L*a*b*, ΔE) of anti-aging cream containing a retinoid after suntest; type: physicochemical
Method: Retinoids such as e.g. retinol are potent anti-aging cosmetic agents known to be unstable and prone to discoloration upon light exposure and longer storage at higher temperatures (e.g. >30° C.).
The phase A was heated to 80° C. For phase B, Carbopol Ultrez 21 was sprinkled at the surface of the water for swelling. Afterwards, glycerin was added and phase B was heated up to 80°. Then phase B was added to phase A under strong agitation with an Ultra Turrax. The formula was cooled down and phase C was added at around 40° C. Afterwards, the formula was neutralized with sodium hydroxide to get pH 5-5.5. When the formula was at room temperature, phase E was added under agitation. Final pH was checked to be 5-5.5.
The cream samples were exposed to artificial UV light in a suntest device (Original Hanau-Xenon lamp) for 8 hours 550-600 W/m^2 (300 to 800 nm). Afterwards, they were evaluated for discoloration by measurement of L*a*b* values and calculation of the color difference ΔE as described in example 8.

[3] = Stabilization of avocado oil, absorbance at 232 nm (conjugated dienes); type: physicochemical; conditions: compared to avocado oil without additive or to alpha-tocopherol 0.5%
Method: To evaluate the odor protecting effect of [6]-paradol on oils, oil samples comprising avocado oil without (A) and with different additives (B to D) were prepared as given in Table 5.
(§1) The oil samples were divided respectively into 3 portions, wherein one part was exposed to artificial UV light in a suntest device (Original Hanau-Xenon lamp) for 8 hours 550-600 W/m^2 (300 to 800 nm). The other two portions were stored for 1 month either at room temperature exposed to normal daylight (RTL) or at 50° C. in a heating cabinet (50° C.), respectively. After the treatments, the absorbance at 232 nm was determined as this positive correlates with the state of oxidation by detecting conjugated dienes as specific oxidized compounds.

[4] = Stabilization of argan oil, absorbance at 232 nm (conjugated dienes); type: physicochemical; conditions: compared to argan oil without additive or to alpha-tocopherol 0.5%
Method: To evaluate the protecting effect of oils from oxidation, oil samples comprising argan oil without (A) and with different additives (B to D) were prepared as given in Table 8.
as §1, with “oils” for “oil samples”, “divided” for “divided respectively”, “portions each. One portion” for “portions, wherein one part”, “this” for “this positive”

oxidized DNA bases = conditions: in vitro; cited from earlier work
DMBA-treated hamsters = conditions: oral 30 mg/kg b.w. on alternate days for 14 weeks; cited from earlier work

Cc1c(C)c2c(c(C)c1O)CC[C@@](C)(CCC[C@H](C)CCC[C@H](C)CCCC(C)C)O2 [alpha-tocopherol, reference compound]
IC50 [1]: 26.8 µM | color protection of retinol (in words) [2]: unsuitable for protecting retinol from discoloration

CCCCCCCC(=O)CCc1ccc(O)c(OC)c1 [[6]-paradol, 1-(4-hydroxy-3-methoxyphenyl)-decan-3-one]
IC50 [1]: 17.4 µM | radical scavenging activity better than alpha-tocopherol ([1]; comparison of IC50 values): 1.5 fold | protective effect on avocado oil (in words) [3]: lower increase of absorbance at 232 nm | protective effect on argan oil (in words) [4]: lower increase of absorbance at 232 nm | H2O2- and UV-induced formation of oxidized DNA bases (oxidized DNA bases): attenuated | status of antioxidants (DMBA-treated hamsters): significantly improved the status of antioxidants

Source: patent publication US12226501B2, “Composition with stabilized taste and odor” (Symrise AG, priority 2015, dated 2025)
